Experimental data from patent US20210230159A1, “4H-PYRIDO[1,2-A]PYRIMIDIN-4-ONE COMPOUNDS” (Prana Biotechnology Limited, priority 2014, published 2021).

Test: Hydrogen peroxide (H2O2) inhibition assay (fluorescence, DCF/horseradish peroxidase)
Assay type: biochemical
Settings: ascorbic acid as reducing substrate
Experimental: Assay 1. Hydrogen Peroxide Assay
H2O2 is a strong oxidizer and a highly reactive oxygen species that is known to be toxic to surrounding proteins and organelles, inhibiting their function. […] […] H2O2 generated by the system is assessed by measuring the specific fluorescence profile at the excitation and emission wavelengths of 485 and 530 nm respectively, in the presence of test compound. Test compounds were dissolved in DMSO and tested at concentrations of 0.4 μM. Test compounds are ranked according to their capacity to inhibit H2O2 generated by the system where lower values reflect greater ability to inhibit H2O2 production.

CCCc1cnc2c(O)c(CN(C)C)ccn2c1=O [Compound 1631]
Cu % ASC (cf. CQ = 100%): Cu 248% ASC
Zn % ASC (cf. CQ = 100%): Zn 101% ASC

CC(C)c1cnc2c(O)c(CN(C)C)ccn2c1=O [Compound 1632]
Cu % ASC (cf. CQ = 100%): Cu 228% ASC
Zn % ASC (cf. CQ = 100%): Zn 106% ASC

CC(C)c1cnc2c(O)c(-c3cnn(C)c3)ccn2c1=O [Compound 1633]
Cu % ASC (cf. CQ = 100%): Cu 17% ASC
Zn % ASC (cf. CQ = 100%): Zn 140% ASC
